Measured values published in article PMC5613016, “GRL-09510, a Unique P2-Crown-Tetrahydrofuranylurethane -Containing HIV-1 Protease Inhibitor, Maintains Its Favorable Antiviral Activity against Highly-Drug-Resistant HIV-1 Variants in vitro” (Scientific Reports, 2017).

Columns and labels:
Assay type in all cases: cell-based
[1] = system: HIV-1LAI; assay: microbe, parasite or virus in culture
Procedure: (§1) The susceptibility of HIV-1LAI or HIV-2ROD to various compounds was determined as previously described[20]–[22]. Briefly, MT-2 cells (10^4/ml) were exposed to 100 TCID50 of HIV-1LAI or HIV-2ROD in the presence or absence of various concentrations of compounds in 96-well plates and were incubated at 37 °C for 7 days. After incubation, 100 μl of the medium was removed from each well, 3-(4,5-dimetylthiazol-2-yl)-2,5-diphenyltetrazolium bromide (MTT) solution (10 μl, 7.5 mg/ml in PBS) was added to each well, followed by incubation at 37 °C for 2 h. […] To determine the sensitivity of clinically isolated HIV-1s to compounds, PHA-PBMC (10^6/ml) were exposed to 50 TCID50 of each HIV-1 and cultured in the presence or absence of various concentrations of compounds in 10-fold serial dilutions in 96-well plates. In determining the drug-susceptibility of certain laboratory HIV-1 strains, MT-4 cells were employed as target cells as previously described[23],[24]. MT-4 cells (10^5/ml) were exposed to 100 TCID50 of drug-resistant HIV-1s in the presence or absence of various concentrations of compounds and were incubated at 37 °C. On day 7, the supernatants were harvested and the amounts of p24 were determined by using a fully-automated chemiluminescent enzyme immunoassay system (Lumipulse f: Fujirebio, Tokyo)[35]–[37]. […] All assays were performed in duplicate, and EC50 shown in this report represent average values of two to four independent experiments. PHA-PBMCs were derived from a single donor in each independent experiment. The research protocols described in the present study were carried out in accordance with relevant guidelines and regulations, and were approved in Ethics Committee for Epidemiological and General Research at the Faculty of Life Sciences, Kumamoto University.

[2] = system: HIV-2ROD; assay: microbe, parasite or virus in culture
Procedure: as §1

[3] = system: HIV-1NL4-3; assay: p24 production inhibition in MT-4 cells; conditions: Human immunodeficiency virus 1, MT4, MT-4 cells
Method in brief: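 PBMC: PHA-stimulated, 10^6/ml, one donor/experiment, 50 TCID50 isolate, 10-fold drug series, p24 day 7. MT-4: 10^5/ml, 100 TCID50, 37 °C, p24 day 7. MT-2: 10^4/ml, 100 TCID50, 7 d, MTT 2 h.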

[4] = system: HIV-1_9510 ^R 36P; assay: p24 production inhibition in MT-4 cells
Method in brief: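 MTT read-out after 7 d at 37 °C for MT-2 (10^4/ml) challenged with 100 TCID50 virus ± compound. p24 by chemiluminescent EIA on day 7 for PHA-PBMC (10^6/ml, 50 TCID50) and MT-4 (10^5/ml, 100 TCID50).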

[5] = system: HIV-1NL4-3; assay: In vitro selection of resistant HIV-1 variants in MT-4 cells
Text: MT-4 cells (10^5/ml) were exposed to HIV-1NL4-3 (500 TCID50) and cultured in the presence of compounds at an initial concentration of its EC50 value. Viral replication was monitored by the determination of the amount of p24 produced by MT-4 cells. The supernatants were harvested on day 7 and were used to infect fresh MT-4 cells for the next round of culture in the presence of increasing concentrations of each compound. Proviral DNAs obtained from the lysates of infected cells were subjected to sequencing. This selection procedure was carried out until the drug concentration reached 5 μM as previously described[20]–[22]).

With `COc1ccc(S(=O)(=O)N(CC(C)C)CC(O)C(Cc2ccccc2)NC(=O)OC2C3COC4OCC2C4C3)cc1` (stereo not drawn) [GRL-09510] the EC50 ([1]; Human immunodeficiency virus 1, MT2, MT-2 cells, 100 TCID50, MTT assay, read-out: EC50 Against HIV-1LAI) was 1.4 ± 0.9 nM, the “Selectivity Index (CC50/EC50) MT2/HIV-1LAI” value ([1]; ratio of CC50 to EC50 against HIV-1LAI) was 27,857 and the EC50 ([2]; MT-2 cells, 100 TCID50, MTT assay, read-out: EC50 Against HIV-2ROD) was 1.8 ± 0.1 nM. The “Selectivity Index (CC50/EC50) MT2/HIV-2ROD” value ([2]; ratio of CC50 to EC50 against HIV-2ROD) was 21,667, the EC50 ([3]; p24 Gag production, Table 3) was 2.8 ± 0.7 nM and the EC50 ([3]; p24 assay, Table 4, four to six independent experiments) was 2.2 ± 0.9 nM. The EC50 ([4]; Human immunodeficiency virus 1, MT4, MT-4 cells, p24 assay, read-out: EC50 HIV-1_9510 ^R 36P) was 24 ± 2 nM, the “fold change of EC50 HIV-19510RP36” value ([4]; compared to EC50 for HIV-1NL4-3, Supplemental Table 3) was 11 and the “fold change of EC50 HIV-1_9510 ^R 36P” value ([4]; compared to the value against HIV-1NL4-3) was 11. For the same compound, the “selection concentration reached after 24 passages” value ([5]; HIV-1NL4-3 first exposed to 0.003 µM) was 0.105 µM, the “concentrations in which the virus began continuously failing to propagate” value ([5]; at around passage 30, selection discontinued at passage 37) was > 0.27 µM and the “fold greater selection concentration than the initial concentration after 24 passages” value ([5]; initial 0.003 µM) was 35 fold.
